According to patent US20230271969A1, “NITROGEN-CONTAINING FUSED RING DERIVATIVE INHIBITOR, PREPARATION METHOD THEREFOR AND USE THEREOF” (Shanghai Hansoh Biomedical Co., Ltd., priority 2020, published 2023):

What was measured:
[1] = molecular target: T1, NK3 receptors (Homo sapiens, UniProt P29371); experiment: Calcium ion fluidity (FLIPR) in cells with stable expression of NK3 receptors; type: cell-based; settings: calcium signal, antagonist mode, read-out: NK3R IC50 (nM) FLIPR
T1 construct: expressed in transfected cells
T1 sequence (P29371 1-465): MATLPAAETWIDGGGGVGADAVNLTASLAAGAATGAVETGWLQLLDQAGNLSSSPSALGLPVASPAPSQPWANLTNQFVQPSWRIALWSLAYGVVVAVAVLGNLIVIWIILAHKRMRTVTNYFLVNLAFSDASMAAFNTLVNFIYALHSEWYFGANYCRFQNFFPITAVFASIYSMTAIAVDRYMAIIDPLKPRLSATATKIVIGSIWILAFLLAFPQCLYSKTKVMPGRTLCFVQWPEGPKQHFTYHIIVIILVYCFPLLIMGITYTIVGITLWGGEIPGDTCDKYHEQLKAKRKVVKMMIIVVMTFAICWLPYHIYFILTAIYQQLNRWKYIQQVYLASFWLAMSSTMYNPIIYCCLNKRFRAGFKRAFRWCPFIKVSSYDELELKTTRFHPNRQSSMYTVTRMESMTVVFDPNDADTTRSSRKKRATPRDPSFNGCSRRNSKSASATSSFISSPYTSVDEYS
Description: Determination of the Effect of the Compounds of the Present Invention on Calcium Ion Fluidity in Cells with Stable Expression of NK3 Receptors
Experimental objective: The objective of this test example was to determine the inhibitory effect of the compounds on NK3 receptors.
Experimental Methods: • 1. […] Probenecid and BSA were freshly added on the day of the experiment. The buffers for the experiments included dye buffer, compound dilution buffer and the like. • 2. […] The culture medium was discarded, and 20 μL of dye was added. The cells were incubated at 37° C. in the dark for 60 min, and then the calcium signal was read. • 4. The antagonist was prepared before the experiments. […] The plate was transferred to FLIPR, and 6× concentration of the agonist compound was added at 5 μL/well. The values were read and the data were saved by using FLIPR. The total assay volume was 30 μL, comprising 20 μL/well of dye buffer, 5 μL/well of 5× concentration of the experimental compound, and 5 μL/well of 6× concentration of the agonist compound.
The calcium signal value was read by FLIPR. The output of each sampling time point in the experiment was calculated as the ratio of the signals at wavelengths of 340/510 nm to 380/510 nm. The maximum minus minimum value was calculated from the ratio signal curve. The IC50 value of the compound was calculated by fitting the data of inhibition rate percentage and ten concentrations to the parametric nonlinear logistic equation by using GraphPad prism.

[2] = molecular target: T1, NK3 receptors; experiment: Antagonism of IP1 in HEK293 cells with stable expression of NK3; type: cell-based; settings: agonist Senktide 3 nM, read-out: NK3R IC50 (nM) IP1
Experimental: Determination of the Effect of the Compounds of the Present Invention on IP1 in HEK293 Cells with Stable Expression of NK3
The objective of this test example was to determine the antagonism effect of the compounds on the activity of HEK293-NK3 cells.
3. Experimental Methods: • 1. […] HEK293-NK3 cell line was cultured in complete medium and seeded in the coated dishes at 37° C., 5% CO2 until 70%˜90% confluence. • 3. […] The cells were digested and resuspended in 1× Stimulation Buffer (IP-ONE Gq Kit), seeded into the 384-well cell culture plate (which contained the compound to be tested) at 5,000 cells/well/5 μL by using Multidrop Combi. The culture plate was centrifuged at 300 rpm at room temperature for 60 seconds, and then incubated at 37° C., 5% CO2 for 15 minutes. • 5. The cell culture plate was taken out from the CO2 incubator. […] The culture plate was centrifuged at 300 rpm at room temperature for 60 seconds, and then incubated at 37° C., 5% CO2 for 2 hours. • 6. The cell culture plate was taken out from the CO2 incubator. 5 μL of IP1 d2 reagent and then 5 μL of IP1 Tb Cryptate Antibody reagent were added by using Multidrop Combi. The culture plate was centrifuged at room temperature at 300 rpm for 60 seconds, and left to stand at room temperature for 1 hour. • 7. The plate was read by using EnVision Multilabel Reader, and data were collected at the same time.
The fluorescence signal ratio (Ratio) was read and collected by EnVision Multilabel Reader. According to the readings of the Low control (DMSO control) and High control (p)ositive compound) experimental groups, the antagonism percentage data were calculated as {% antagonism=(Ratio sample−Ratio low control)/(Ratio high control−Ratio low control)×100}.

C[C@@H]1c2nnc(-c3nc4cc(F)ccc4s3)n2CCN1C(=O)c1ccc(F)cc1 [Example 9, (R)-(3-(5-Fluorobenzo[d]thiazol-2-yl)-8-methyl-5,6-dihydro-[1,2,4]triazolo[4,3-a]pyrazin-7(8H)-yl)(4-fluorophenyl)methanone]
IC50 [1]: 33.3 nM
IC50 [2]: 46 nM

C[C@@H]1c2nnc(-c3nc4sccc4s3)n2CCN1C(=O)c1ccc(F)cc1 [Example 40, (R)-(4-Fluorophenyl)(8-methyl-3-(thieno[2,3-d]thiazol-2-yl)-5,6-dihydro-[1,2,4]triazolo[4,3-a]pyrazin-7(8H)-yl)methanone]
IC50 [1]: 298 nM

COc1ccc2nc(-c3nnc4n3CCN(C(=O)c3ccc(Cl)cc3)[C@@H]4C)sc2c1 [Example 30, (R)-(4-Chlorophenyl)(3-(6-methoxybenzo[d]thiazol-2-yl)-8-methyl-5,6-dihydro-[1,2,4]triazolo[4,3-a]pyrazin-7(8H)-yl)methanone]
IC50 [1]: 47.4 nM
IC50 [2]: 187 nM

[2H]c1c([2H])c(C(=O)N2CCn3c(-c4nc(Cl)ns4)nnc3[C@H]2C)c([2H])c([2H])c1F [Example 55, (R)-(3-(3-Chloro-1,2,4-thiadiazol-5-yl)-8-methyl-5,6-dihydro-[1,2,4]triazolo[4,3-a]pyrazin-7(8H)-yl)(4-fluorophenyl-2,3,5,6-d4)methanone]
IC50 [1]: 219 nM
IC50 [2]: 88.3 nM

COc1ccc2nc(-c3nnc4n3CCN(C(=O)c3ccc(F)cc3)[C@@H]4C)sc2c1 [Example 29, (R)-(4-Fluorophenyl)(3-(6-methoxybenzo[d]thiazol-2-yl)-8-methyl-5,6-dihydro-[1,2,4]triazolo[4,3-a]pyrazin-7(8H)-yl)methanone]
IC50 [1]: 65.8 nM
IC50 [2]: 29 nM

[2H]c1cc(C(=O)N2CCn3c(-c4nc(N5CC(F)C5)cs4)nnc3[C@H]2C)ccc1F [Example 117, (R)-(3-(4-(3-Fluoroazetidin-1-yl)thiazol-2-yl)-8-methyl-5,6-dihydro-[1,2,4]triazolo[4,3-a]pyrazin-7(8H)-yl)(4-fluorophenyl-3-d)methanone]
IC50 [2]: 116 nM

C[C@@H]1c2nnc(-c3nc4ccc(F)cc4s3)n2CCN1C(=O)c1ccc(Cl)c(Cl)c1 [Example 14, (R)-(3,4-Dichlorophenyl)(3-(6-fluorobenzo[d]thiazol-2-yl)-8-methyl-5,6-dihydro-[1,2,4]triazolo[4,3-a]pyrazin-7(8H)-yl)methanone]
IC50 [1]: 97.6 nM
IC50 [2]: 41.9 nM

C[C@@H]1c2nnc(-c3nc4sccc4s3)n2CCN1C(=O)c1ccc(Cl)cc1 [Example 41, (R)-(4-Chlorophenyl)(8-methyl-3-(thieno[2,3-d]thiazol-2-yl)-5,6-dihydro-[1,2,4]triazolo[4,3-a]pyrazin-7(8H)-yl)methanone]
IC50 [1]: 224 nM

Cc1cccc2sc(-c3nnc4n3CCN(C(=O)c3ccc(F)cc3)[C@@H]4C)nc12 [Example 22, (R)-(4-Fluorophenyl)(8-methyl-3-(4-methylbenzo[d]thiazol-2-yl)-5,6-dihydro-[1,2,4]triazolo[4,3-a]pyrazin-7(8H)-yl)methanone]
IC50 [1]: 73.3 nM
IC50 [2]: 57 nM

C[C@@H]1c2nnc(-c3nc(N(C)C4CC4)ns3)n2CCN1C(=O)c1ccc(F)cc1 [Example 115, (R)-(3-(3-(Cyclopropyl(methyl)amino)-1,2,4-thiadiazol-5-yl)-8-methyl-5,6-dihydro-[1,2,4]triazolo[4,3-a]pyrazin-7(8H)-yl)(4-fluorophenyl)methanone]
IC50 [2]: 76.6 nM

Cc1ccc2nc(-c3nnc4n3CCN(C(=O)c3ccc(Cl)c(Cl)c3)[C@@H]4C)sc2c1 [Example 26, (R)-(3,4-Dichlorophenyl)(8-methyl-3-(6-methylbenzo[d]thiazol-2-yl)-5,6-dihydro-[1,2,4]triazolo[4,3-a]pyrazin-7(8H)-yl)methanone]
IC50 [1]: 96.7 nM
IC50 [2]: 36.1 nM

Cc1cccc2cc(-c3nnc4n3CCN(C(=O)c3ccc(Cl)c(Cl)c3)[C@@H]4C)nn12 [Example 49, (R)-(3,4-Dichlorophenyl)(8-methyl-3-(7-methylpyrazolo[1,5-a]pyridin-2-yl)-5,6-dihydro-[1,2,4]triazolo[4,3-a]pyrazin-7(8H)-yl)methanone]
IC50 [1]: 86.7 nM
IC50 [2]: 135 nM

C[C@@H]1c2nnc(-c3cc4ccccn4n3)n2CCN1C(=O)c1ccc(Cl)c(Cl)c1 [Example 46, (R)-(3,4-Dichlorophenyl)(8-methyl-3-(pyrazolo[1,5-a]pyridin-2-yl)-5,6-dihydro-[1,2,4]triazolo[4,3-a]pyrazin-7(8H)-yl)methanone]
IC50 [1]: 107 nM

C[C@@H]1c2nnc(-c3nc4ccsc4s3)n2CCN1C(=O)c1ccc(Cl)c(Cl)c1 [Example 44, (R)-(3,4-Dichlorophenyl)(8-methyl-3-(thieno[3,2-d]thiazol-2-yl)-5,6-dihydro-[1,2,4]triazolo[4,3-a]pyrazin-7(8H)-yl)methanone]
IC50 [1]: 255 nM

[2H]c1c([2H])c(C(=O)N2CCn3c(-c4nc(C([2H])([2H])[2H])ns4)nnc3[C@H]2C)c([2H])c([2H])c1F [Example 50, (R)-(4-Fluorophenyl-2,3,5,6-d4)(8-methyl-3-(3-(methyl-d3)-1,2,4-thiadiazol-5-yl)-5,6-dihydro-[1,2,4]triazolo[4,3-a]pyrazin-7(8H)-yl)methanone]
IC50 [1]: 147 nM

C[C@@H]1c2nnc(-c3nc4ccccc4s3)n2CCN1C(=O)c1ccc(-c2cccs2)cc1 [Example 5, (R)-(3-(Benzo[d]thiazol-2-yl)-8-methyl-5,6-dihydro-[1,2,4]triazolo[4,3-a]pyrazin-7 (8H)-yl)(4-(thien-2-yl)phenyl)methanone]
IC50 [1]: 159 nM

C[C@@H]1c2nnc(-c3nc4cc(F)cc(F)c4s3)n2CCN1C(=O)c1ccc(F)cc1 [Example 18, (R)-(3-(5,7-Difluorobenzo[d]thiazol-2-yl)-8-methyl-5,6-dihydro-[1,2,4]triazolo[4,3-a]pyrazin-7(8H)-yl)(4-fluorophenyl)methanone]
IC50 [1]: 130 nM

C[C@@H]1c2nnc(-c3nc4ccccc4s3)n2CCN1C(=O)c1ccc(F)cc1 [Example 1, (R)-(3-(Benzo[d]thiazol-2-yl)-8-methyl-5,6-dihydro-[1,2,4]triazolo[4,3-a]pyrazin-7 (8H)-yl)(4-fluorophenyl)methanone]
IC50 [1]: 76.2 nM

C[C@@H]1c2nnc(-c3nc4c(F)cc(F)cc4s3)n2CCN1C(=O)c1ccc(Cl)cc1 [Example 16, (R)-(4-Chlorophenyl)(3-(4,6-difluorobenzo[d]thiazol-2-yl)-8-methyl-5,6-dihydro-[1,2,4]triazolo[4,3-a]pyrazin-7(8H)-yl)methanone]
IC50 [2]: 146 nM

[2H]c1cc(C(=O)N2CCn3c(-c4nc(Cl)cs4)nnc3[C@H]2C)ccc1F [Example 121, (R)-(3-(4-Chlorothiazol-2-yl)-8-methyl-5,6-dihydro-[1,2,4]triazolo[4,3-a]pyrazin-7 (8H)-yl)(4-fluorophenyl-3-d)methanone]
IC50 [2]: 132 nM

[2H]C([2H])([2H])N(c1nsc(-c2nnc3n2CCN(C(=O)c2ccc(F)cc2)[C@@H]3C)n1)C([2H])([2H])[2H] [Example 106, (R)-(3-(3-(Bis(methyl-d3)amino)-1,2,4-thiadiazol-5-yl)-8-methyl-5,6-dihydro-[1,2,4]triazolo[4,3-a]pyrazin-7(8H)-yl)(4-fluorophenyl)methanone]
IC50 [2]: 129 nM

C[C@@H]1c2nnc(-c3nc4ccc(Cl)nc4s3)n2CCN1C(=O)c1ccc(F)cc1 [Example 38]
IC50 [1]: 247 nM
